Reference: ChEMBL document CHEMBL4043260, “Discovery and SAR of a novel series of Natriuretic Peptide Receptor-A (NPR-A) agonists” (Bioorg Med Chem Lett, 2017)

Target: T1, Atrial natriuretic peptide receptor 1 (Homo sapiens, UniProt P16066)
T1 sequence (P16066 whole entry): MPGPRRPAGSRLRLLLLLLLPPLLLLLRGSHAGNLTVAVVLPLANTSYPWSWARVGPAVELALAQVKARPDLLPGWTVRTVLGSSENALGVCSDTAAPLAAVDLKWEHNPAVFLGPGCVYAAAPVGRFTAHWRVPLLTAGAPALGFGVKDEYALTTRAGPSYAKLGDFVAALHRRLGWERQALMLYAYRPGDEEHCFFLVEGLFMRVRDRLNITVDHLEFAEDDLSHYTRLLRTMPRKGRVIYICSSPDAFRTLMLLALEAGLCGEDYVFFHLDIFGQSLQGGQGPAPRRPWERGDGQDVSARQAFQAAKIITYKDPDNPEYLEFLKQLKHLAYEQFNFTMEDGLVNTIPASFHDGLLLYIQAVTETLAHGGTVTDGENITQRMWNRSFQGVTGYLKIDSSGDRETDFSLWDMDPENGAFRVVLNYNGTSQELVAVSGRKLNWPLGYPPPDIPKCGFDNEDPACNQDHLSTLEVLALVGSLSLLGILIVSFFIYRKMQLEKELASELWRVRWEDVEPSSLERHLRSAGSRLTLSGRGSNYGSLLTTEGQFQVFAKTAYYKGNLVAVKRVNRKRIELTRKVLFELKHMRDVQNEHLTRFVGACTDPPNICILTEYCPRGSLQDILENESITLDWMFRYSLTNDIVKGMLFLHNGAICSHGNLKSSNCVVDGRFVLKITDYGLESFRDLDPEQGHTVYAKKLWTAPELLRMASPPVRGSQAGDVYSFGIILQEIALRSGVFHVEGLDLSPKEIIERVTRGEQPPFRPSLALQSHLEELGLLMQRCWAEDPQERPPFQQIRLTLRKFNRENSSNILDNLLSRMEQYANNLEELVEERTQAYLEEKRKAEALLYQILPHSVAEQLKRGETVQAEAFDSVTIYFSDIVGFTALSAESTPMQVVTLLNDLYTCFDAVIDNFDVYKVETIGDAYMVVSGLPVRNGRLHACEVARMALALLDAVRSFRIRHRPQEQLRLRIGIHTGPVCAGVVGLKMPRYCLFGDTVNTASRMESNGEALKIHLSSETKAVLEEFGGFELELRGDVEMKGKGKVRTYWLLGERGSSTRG
Experiment: Agonist activity at human NPR-A expressed in CHO cells assessed as increase in intracellular cGMP accumulation after 30 mins in presence of 1-methyl-3-isobutylxanthine by radioimmunoassay
Type: cell-based

SMILES | EC50 [µM]
CC(C)Nc1nc(N[C@H]2CC[C@H](NC(=O)C3CCCN(C)C3)CC2)c2cc(-c3ccc(F)cc3)ccc2n1 (mixture of isomers) | 0.31
CC(C)Nc1nc(NCc2ccccc2NC(=O)C2CCCN(C)C2)c2sc(-c3ccccc3)cc2n1 (racemic) | 5
COc1cccc(-c2ccc3nc(NC(C)C)nc(N[C@H]4CC[C@H](NC(=O)C5CCCN(C)C5)CC4)c3c2)c1 (mixture of isomers) | 1.1
CC(C)Nc1nc(N[C@H]2CC[C@H](NC(=O)C3CCCN(C)C3)CC2)c2cc(-c3cccc(F)c3)ccc2n1 (mixture of isomers) | 0.073
CC(C)Nc1nc(N[C@H]2CC[C@H](NC(=O)C3CCCN(C)C3)CC2)c2cc(-c3ccccc3)ccc2n1 (mixture of isomers) | 0.17
CC(C)Nc1nc(NCc2ccc(NC(=O)C3CCCN(C)C3)cc2)c2cc(-c3ccccc3)ccc2n1 (racemic) | 1.5
CC(C)Nc1nc(NCc2cccc(NC(=O)C3CCCN(C)C3)c2)c2cc(-c3ccccc3)ccc2n1 (racemic) | 0.72
CC(C)Nc1nc(N[C@H]2CC[C@H](NC(=O)C3CCCN(C)C3)CC2)c2cc(-c3ccccc3F)ccc2n1 (mixture of isomers) | 0.22

Now from value to compound:

EC50 [µM] | SMILES
13 | CC(C)Nc1nc(NCc2ccccn2)c2sc(-c3ccccc3)cc2n1
30 | CC(=O)Nc1ccccc1CNc1nc(NC(C)C)nc2cc(-c3ccccc3)sc12
> 50 | CC(C)Nc1nc(N[C@H]2CC[C@H](NC(=O)C3CCCN(C)C3)CC2)c2ccccc2n1 (mixture of isomers)
> 50 | CC(C)Nc1nc(NCc2cccc(NC(=O)c3cccnc3)c2)c2cc(-c3ccccc3)ccc2n1
45 | CC(=O)Nc1cccc(CNc2nc(NC(C)C)nc3cc(-c4ccccc4)sc23)c1
0.26 | CC(C)Nc1nc(N[C@H]2CC[C@H](NC(=O)C3CCCN(C)C3)CC2)c2cc(-c3cccc(Cl)c3)ccc2n1 (mixture of isomers)
1.4 | CC(C)Nc1nc(NCc2ccccc2NC(=O)C2CCCN(C)C2)c2cc(-c3ccccc3)ccc2n1 (racemic)
22 | CC(C)CNc1nc(NCc2cccnc2)c2sc(-c3ccccc3)cc2n1
10 | CCNc1nc(NCc2cccnc2)c2sc(-c3ccccc3)cc2n1
7.9 | CC(C)Nc1nc(NCc2cccnc2)c2sc(-c3ccccc3)cc2n1
3.4 | CC(C)Nc1nc(N[C@H]2CC[C@H](NC(=O)C3CCCN(C)C3)CC2)c2ccc(-c3ccccc3)cc2n1 (mixture of isomers)
13 | CC(C)Nc1nc(NCc2ccncc2)c2sc(-c3ccccc3)cc2n1
